Like-named read-outs stand apart in the source and are kept apart here.

In one data set the target is CYP1A2 (Homo sapiens (Human), UniProt P05177). Kind of data set: CYP1A2 inhibition in human liver microsomes. In kind it is in vitro ADME. The method, then:
The specific marker metabolites are measured with LC/MS/MS. The remaining enzymatic activities and inhibitory potency IC50 are determined. Microsomes are removed out of the −80° C. freezer to thaw on ice and 20 μL of the substrates solution added to the corresponding wells. […] Then 158 μL of the HLM working solution was added to all wells of the incubation plate. The plate was pre-warmed for about 10 min using a 37° C. water bath. Then 20 μL of the NADPH cofactor solution was added to all incubation wells, mixed and incubated for 10 minutes at 37° C. water bath. The reaction is terminated by adding 400 μL cold stop solution (200 ng/mL Tolbutamide and 200 ng/mL Labetalol in ACN). […] Finally 200 μL of the supernatant was transferred to 100 μL HPLC water, shaken for 10 min and analyzed by LC/MS/MS.
A general note: Liver microsomes are vesicles of endoplasmic reticulum, rich in cytochrome P450 enzymes.

A further data set has as its target human Nav1.6 (hNav1.6) (Homo sapiens (Human), UniProt Q9UQD0). Put plainly: Inhibition of late sodium current (INaL) at hNav1.6, PatchXpress electrophysiology. The following applies: 1 μM compound; HEK-293 cells expressing recombinant hNav1.6; late current evoked by 300 nM ATX-II. Type of data set: cell-based. How it is done: Functional characterization of exemplary compounds to modulate INaL expressed by the Nav1.6 voltage-gated sodium channel was accomplished using the PatchXpress™ high throughput electrophysiology platform (Molecular Devices, Sunnyvale, CA). HEK-293 cells expressing recombinant, human Nav1.6 (hNav1.6)were grown in DMEM/high-glucose Dulbecco's modified, 10% FBS, 2 mM sodium pyruvate, 10 mM HEPES and 400 μg/mL G418. Cells were grown to 50%-80% confluency prior to harvesting. […] The onboard liquid handling facility of the PatchXpress was used for dispensing cells and applying test compounds. Nav late currents were evoked by the application of 300 nM ATX-II. […] INaL amplitude and stability were determined by analyzing the mean current amplitude over the final 20 ms of the test pulse. […] Percent steady-state inhibition of INaL was calculated as: [(INaL_compound)/(INaL_control)]*100, where INaL_compound and INaL_control represent INaL recorded in the presence or absence of compound, respectively.

Data set [1] can be described thus: PK rat clearance experiment. The conditions noted are these: male Sprague-Dawley rats, single intravenous bolus 0.5 mg/kg, plasma.
Procedure: (§1) The IV dosing solution was prepared freshly on the dosing day. Test article (0.5 mg/kg) was prepared in a vehicle, for example, consisting of 5% DMSO/5% solutol/90% water. The concentrations of test article in all dosing solutions were determined by HPLC/UV. Three male Sprague-Dawley rats were used in this study. The animals were confirmed healthy before being assigned to the study. Each animal was given a unique identification number which was marked on the tail or the ear, and written on the cage card. All animals were fasted overnight before dosing and the food was returned at 4 hours post dosing. Water was provided to all animals ad libitum during the fasting period. Animals were weighed prior to dose administration on the day of dosing for calculating the actual dose volume. The body weights were in the range from 212 g to 223 g for males. All animals received test article by single intravenous bolus administration at 0.5 mg/kg. Approximately 0.2 mL blood was collected at each time point via jugular vein from each study animal. […] All blood samples were transferred into pre-labeled plastic micro centrifuge tubes and mixed with the pre-loaded anti-coagulant K2EDTA (5 μL, 0.5 M). Plasma samples were then prepared by centrifuging the blood samples. All plasma samples were then quickly frozen over dry ice and kept at −60° C. or lower until LC/MS/MS analysis. The concentrations of test article in plasma were determined by using a quantitative bioanalytical LC/MS/MS method. The lower limit of quantitation (LLOQ) for test article in plasma was 1 ng/mL, and the upper limit of quantitation (ULOQ) in plasma was 3000 ng/mL. The plasma concentration of test article in rats was subjected to a non compartmental pharmacokinetic analysis by using the Phoenix WinNonlin software (version 6.3, Pharsight, Mountain View, CA).
(§2) The linear/log trapezoidal rule was applied in obtaining the PK parameters.
The conditions of data set [2]: rat, in vivo, iv, 0.5 mg/kg.
Procedure: as §1, §2
[3] abbreviates: pooled human liver microsomes, substrate Phenacetin, read-out: CYP1A2 IC50 mean.

Chain of CYP1A2 (P05177 whole entry): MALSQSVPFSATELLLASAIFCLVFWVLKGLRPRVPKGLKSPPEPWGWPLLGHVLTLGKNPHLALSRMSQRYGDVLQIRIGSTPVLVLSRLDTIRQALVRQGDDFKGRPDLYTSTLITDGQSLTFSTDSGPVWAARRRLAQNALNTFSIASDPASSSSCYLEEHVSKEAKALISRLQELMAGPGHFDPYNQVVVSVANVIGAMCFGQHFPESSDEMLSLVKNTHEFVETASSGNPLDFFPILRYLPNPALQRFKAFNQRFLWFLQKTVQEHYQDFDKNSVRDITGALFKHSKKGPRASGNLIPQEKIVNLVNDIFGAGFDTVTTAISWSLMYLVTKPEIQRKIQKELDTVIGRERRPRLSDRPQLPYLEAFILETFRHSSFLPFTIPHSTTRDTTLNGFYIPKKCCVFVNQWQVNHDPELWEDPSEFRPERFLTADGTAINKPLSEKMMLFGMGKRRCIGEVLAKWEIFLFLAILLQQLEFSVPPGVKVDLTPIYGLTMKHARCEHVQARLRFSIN
Chain of human Nav1.6 (hNav1.6) (Q9UQD0 whole entry): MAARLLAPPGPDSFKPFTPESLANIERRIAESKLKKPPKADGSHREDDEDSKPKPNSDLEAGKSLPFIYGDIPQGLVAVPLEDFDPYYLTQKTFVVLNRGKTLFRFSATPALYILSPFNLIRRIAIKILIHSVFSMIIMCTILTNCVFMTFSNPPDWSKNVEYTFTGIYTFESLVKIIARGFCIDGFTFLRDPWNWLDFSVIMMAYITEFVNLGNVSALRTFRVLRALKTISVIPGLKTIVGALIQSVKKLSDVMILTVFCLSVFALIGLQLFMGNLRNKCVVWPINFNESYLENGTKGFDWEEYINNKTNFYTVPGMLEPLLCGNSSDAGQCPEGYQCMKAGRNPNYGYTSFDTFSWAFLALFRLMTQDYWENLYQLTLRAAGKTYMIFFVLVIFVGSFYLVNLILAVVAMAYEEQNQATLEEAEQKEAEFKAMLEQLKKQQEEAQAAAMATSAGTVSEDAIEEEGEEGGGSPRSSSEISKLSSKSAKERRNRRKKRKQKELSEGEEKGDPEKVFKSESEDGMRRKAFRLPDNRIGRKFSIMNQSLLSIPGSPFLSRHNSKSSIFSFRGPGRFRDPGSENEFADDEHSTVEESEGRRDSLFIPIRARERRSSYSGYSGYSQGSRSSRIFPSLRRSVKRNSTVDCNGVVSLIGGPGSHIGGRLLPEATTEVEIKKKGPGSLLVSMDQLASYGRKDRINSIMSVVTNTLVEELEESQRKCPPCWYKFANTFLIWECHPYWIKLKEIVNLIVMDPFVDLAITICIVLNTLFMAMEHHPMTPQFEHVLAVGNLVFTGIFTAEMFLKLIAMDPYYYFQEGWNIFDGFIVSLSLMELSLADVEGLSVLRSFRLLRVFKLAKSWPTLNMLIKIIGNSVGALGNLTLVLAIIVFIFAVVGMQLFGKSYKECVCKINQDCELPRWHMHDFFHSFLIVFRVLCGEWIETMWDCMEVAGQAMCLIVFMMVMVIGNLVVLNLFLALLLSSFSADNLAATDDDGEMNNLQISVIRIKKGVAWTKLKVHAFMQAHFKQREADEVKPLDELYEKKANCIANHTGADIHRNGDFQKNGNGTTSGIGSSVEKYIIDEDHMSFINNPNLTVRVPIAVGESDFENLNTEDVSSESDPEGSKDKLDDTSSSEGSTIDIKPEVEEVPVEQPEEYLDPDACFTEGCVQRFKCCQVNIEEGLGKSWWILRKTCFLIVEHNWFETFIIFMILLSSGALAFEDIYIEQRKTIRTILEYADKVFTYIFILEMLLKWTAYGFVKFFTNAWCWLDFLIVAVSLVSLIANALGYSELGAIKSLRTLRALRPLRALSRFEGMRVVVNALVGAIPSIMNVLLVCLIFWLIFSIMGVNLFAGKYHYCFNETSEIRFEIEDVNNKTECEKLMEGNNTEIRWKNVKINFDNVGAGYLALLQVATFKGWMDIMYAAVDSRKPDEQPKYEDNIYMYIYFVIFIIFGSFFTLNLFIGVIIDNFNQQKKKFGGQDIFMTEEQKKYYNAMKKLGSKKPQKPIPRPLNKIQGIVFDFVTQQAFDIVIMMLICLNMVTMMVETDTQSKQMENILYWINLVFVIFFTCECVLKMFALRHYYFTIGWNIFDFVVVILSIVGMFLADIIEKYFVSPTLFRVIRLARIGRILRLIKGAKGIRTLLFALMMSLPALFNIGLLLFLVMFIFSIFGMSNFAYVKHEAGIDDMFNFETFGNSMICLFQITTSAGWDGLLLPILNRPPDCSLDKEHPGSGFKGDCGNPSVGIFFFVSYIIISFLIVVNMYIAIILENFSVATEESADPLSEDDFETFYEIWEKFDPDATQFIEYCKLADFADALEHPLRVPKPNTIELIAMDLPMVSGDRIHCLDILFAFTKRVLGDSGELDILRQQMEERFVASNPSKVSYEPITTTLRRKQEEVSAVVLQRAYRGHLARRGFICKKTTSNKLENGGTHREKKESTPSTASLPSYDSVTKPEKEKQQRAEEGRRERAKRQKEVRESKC

In the case of `FC(F)(F)c1ccc(-c2ccc3nnc(C(F)(F)F)n3n2)cc1` [Compound 1], the IC50 at CYP1A2 (microsomes) is less than 1000 nM.

Regarding `FC(F)(F)Oc1ccc(-c2ccc3nnc(C4CC4(F)F)n3n2)cc1` (stereo not drawn) [Compound 46], the “INaL v1.6 (1 μM, % Inhibition)” value at human Nav1.6 (hNav1.6) was “C (inhibition of greater than 70%)”. For the same molecule, the half-inhibitory concentration (IC50) on CYP1A2 (setting [3]) fell in the range of 1000 to 15000 nM. Further, in data set [1], the Clearance is recorded as 4.7 mL/min/kg and the T1/2 is listed as 4.5 h.

In turn, `FC(F)c1nnc2cnc(-c3ccc(OC(F)(F)F)cc3)cn12` [Compound 47] came in with an IC50 against CYP1A2 (microsomes) of less than 1000 nM.

On to `COc1cc(OC(F)(F)F)ccc1-c1cn2c(C(F)F)nnc2cn1` [Compound 48], for which the IC50 against CYP1A2 (microsomes) was less than 1000 nM.

As to `FC(F)(F)Oc1ccc(-c2cn3c(C(F)(F)F)nnc3cn2)cc1` [Compound 56], the IC50 on CYP1A2 (setting [3]) is less than 1000 nM.

The molecule `FC(F)(F)c1ccc(-c2cn3c(C(F)(F)F)nnc3cn2)cc1` [Compound 62] had an IC50 at CYP1A2 (microsomes) of less than 1000 nM.

`COCc1cc(OC(F)(F)F)ccc1-c1cn2c(C(F)(F)F)nnc2cn1` [Compound 66]: the “INaL v1.6 (1 μM, % Inhibition)” value on human Nav1.6 (hNav1.6) is on record as “C (inhibition of greater than 70%)”. The IC50 at CYP1A2 (microsomes) lay within 1000 to 15000 nM.

Consider `Fc1cc(-c2cn3c(C(F)F)nnc3cn2)cnc1OCC(F)(F)F` [Compound 68], for which, on human Nav1.6 (hNav1.6), the “INaL v1.6 (1 μM, % Inhibition)” value is “B (inhibition of between about 30% to about 70%)”. Moreover, the IC50 at CYP1A2 (setting [3]) was more than 30000 nM. In data set [1], this molecule came in with a Clearance of 15.8 mL/min/kg and a T1/2 of 1.5 h.

As for `COc1cc(OC(F)(F)F)ccc1-c1cn2c(C(F)(F)F)nnc2cn1` [Compound 70], the IC50 against CYP1A2 (microsomes) was less than 1000 nM.

Regarding `Fc1cc(C(F)(F)F)ccc1-c1cn2c(C(F)(F)F)nnc2cn1` [Compound 76], on CYP1A2 (microsomes), the IC50 was less than 1000 nM.

Regarding `Fc1cc(-c2cn3c(C(F)(F)F)nnc3cn2)ccc1OC(F)(F)F` [Compound 79], the IC50 at CYP1A2 (microsomes) was less than 1000 nM.

Turning to `Fc1cc(-c2cn3c(C(F)(F)F)nnc3cn2)cnc1OC1CC(F)(F)C1` [Compound 84], on human Nav1.6 (hNav1.6), the “INaL v1.6 (1 μM, % Inhibition)” value was “C (inhibition of greater than 70%)”. Also, the IC50 on CYP1A2 (setting [3]) was 1000 to 15000 nM. In data set [1], this molecule returned a Clearance of 21.9 mL/min/kg and a T1/2 of 2.1 h.

Molecule `COC(F)(F)c1nnc2cnc(-c3ccc(OC(F)(F)F)cc3)cn12` [Compound 97] showed a half-maximal inhibitory concentration (IC50) at CYP1A2 (microsomes) of less than 1000 nM.

`Cc1cc(-c2ccc3nnc(C(F)(F)F)n3n2)ccc1C(F)(F)F` [Compound 98] returned an IC50 against CYP1A2 (microsomes) of less than 1000 nM.

On CYP1A2 (microsomes), `FC(F)Oc1ccc(-c2ccc3nnc(C(F)(F)F)n3n2)cc1` [Compound 116] had an IC50 of less than 1000 nM.

With `FC(F)(F)OCc1ccc(-c2ccc3nnc(C(F)(F)F)n3n2)cc1` [Compound 118], the IC50 against CYP1A2 (microsomes) was less than 1000 nM.

As to `C[C@@H](Oc1ncc(-c2cn3c(C(F)F)nnc3cn2)cc1F)C(F)(F)F` [Compound 134], on human Nav1.6 (hNav1.6), the “INaL v1.6 (1 μM, % Inhibition)” value is given as “C (inhibition of greater than 70%)”. The IC50 against CYP1A2 (microsomes) was more than 30000 nM. In data set [2], this molecule had a Clearance of 10.9 mL/min/kg and a T1/2 of 2.6 h.

As usually defined, the IC50 is the concentration needed to halve the response being measured.

The values are drawn from patent publication US20250163068A1, “COMPOUNDS AND THEIR METHODS OF USE” (Praxis Precision Medicines, Inc., priority 2016, published 2025).
